For 21 compounds, T/C results are on record in PubChem BioAssay AID296 (DTP/NCI, 2004).

Several values for one entry are separate records, joined by “and”; a condition that tells them apart may be missing. Equal values may be shown once. Results filed as inconclusive are left out. Where a SMILES comes first, the peptide text is derived from it. The star is where a group is joined. Trt = c1ccc(C(c2ccccc2)(c2ccccc2)*)cc1; Cbz = O=C(OCc1ccccc1)*

The test deals with MX-1 breast xenograft, nude mice, tumor weight T/C. Description: NCI In Vivo Anticancer Drug Screen. Data for tumor model Human Mammary Carcinoma MX-1 Xenograft (intrarenal inoculation) in NU/NU Swiss (nude) mice. The settings on record: endpoint: mean tumor weight change, higher = larger tumour. Summed up: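 Read-out: treated (T) over vehicle control (C) ratio of survival or tumor size. Dosing in animals carrying the transplanted tumor.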
(Xenograft models place foreign cells or tissue in a host animal.)

Where [1] appears, read: dose: 4.0 mg/kg/injection, schedule: Q01DX010 (sc), vehicle: water.
Setting [2] is: dose: 150.0 mg/kg/injection, schedule: Q04DX003 (sc), vehicle: saline with Tween-80.
Where [3] appears, read: dose: 300.0 mg/kg/injection, schedule: Q04DX003 (sc), vehicle: saline with Tween-80.
Setting [4] is: dose: 100.0 mg/kg/injection, schedule: Q01DX010 (sc), vehicle: Klucel (hydroxypropylcellulose) (HPC).
The mark [5] stands for this setting: dose: 200.0 mg/kg/injection, schedule: Q01DX010 (sc), vehicle: Klucel (hydroxypropylcellulose) (HPC).
Where [6] appears, read: dose: 400.0 mg/kg/injection, schedule: Q01DX010 (sc), vehicle: Klucel (hydroxypropylcellulose) (HPC).
Setting [7] is: dose: 600.0 mg/kg/injection, schedule: Q04DX003 (sc), vehicle: saline with Tween-80.
[8] abbreviates: dose: 1200.0 mg/kg/injection, schedule: Q04DX003 (sc), vehicle: saline with Tween-80.
[9] abbreviates: dose: 2400.0 mg/kg/injection, schedule: Q04DX003 (sc), vehicle: saline with Tween-80.

`COC1=C2C[C@@H](C)C[C@@H](OC)[C@@H](O)[C@H](C)/C=C(\C)[C@@H](OC(N)=O)[C@H](OC)/C=C\C=C(/C)C(=O)NC(=CC1=O)C2=O`: the T/C runs as follows: (dose: 4.0 mg/kg/injection, schedule: Q04DX003 (sc), vehicle: saline) 102 % of control; (dose: 8.0 mg/kg/injection, schedule: Q04DX003 (sc), vehicle: saline) 89 % of control; (dose: 16.0 mg/kg/injection, schedule: Q04DX003 (sc), vehicle: saline) 89 % of control; (dose: 32.0 mg/kg/injection, schedule: Q04DX003 (sc), vehicle: saline) 88 % of control and 94 % of control; (dose: 64.0 mg/kg/injection, schedule: Q04DX003 (sc), vehicle: saline) 85 % of control; (dose: 128.0 mg/kg/injection, schedule: Q04DX003 (sc), vehicle: saline) 66 % of control.

For `COc1cccc2c1C(=O)c1c(O)c3c(c(O)c1C2=O)C[C@@](O)(C(C)=O)C[C@@H]3OC1CC(N(C)C)C(O)C(C)O1` (stereo partly specified), the T/C is 293 % of control (dose: 2.0 mg/kg/injection, schedule: Q01DX010 (sc), vehicle: water) and 120 % of control under setting [1].

Consider `N=C(N)c1ccc(/C=C/c2ccc(C(=N)N)cc2O)cc1`, for which the T/C (dose: 37.5 mg/kg/injection, schedule: Q04DX003 (sc), vehicle: water) was 87 % of control; the T/C (dose: 75.0 mg/kg/injection, schedule: Q04DX003 (sc), vehicle: water) is 83 % of control; the T/C (dose: 150.0 mg/kg/injection, schedule: Q04DX003 (sc), vehicle: water) was 89 % of control; the T/C (dose: 300.0 mg/kg/injection, schedule: Q04DX003 (sc), vehicle: water) is 77 % of control.

For `COC(=O)C(CSC(c1ccccc1)(c1ccccc1)c1ccccc1)NC(=O)C(CC(N)=O)NC(=O)OCc1ccccc1` (stereo not drawn) (Cbz-Asn-Cys(Trt)-OMe; configuration not given here), the T/C runs as follows: (dose: 300.0 mg/kg/injection, schedule: Q04DX003 (sc), vehicle: distilled water + Tween-80) 97 % of control; (dose: 600.0 mg/kg/injection, schedule: Q04DX003 (sc), vehicle: distilled water + Tween-80) 77 % of control; (dose: 1200.0 mg/kg/injection, schedule: Q04DX003 (sc), vehicle: distilled water + Tween-80) 78 % of control; (dose: 2400.0 mg/kg/injection, schedule: Q04DX003 (sc), vehicle: distilled water + Tween-80) 94 % of control.

Turning to `Nc1ccc2nc3ccc(N)cc3[n+](-c3ccccc3)c2c1`, the T/C is 65 % of control (dose: 18.0 mg/kg/injection, schedule: Q04DX003 (sc), vehicle: saline); 119 % of control (dose: 36.0 mg/kg/injection, schedule: Q04DX003 (sc), vehicle: saline); 72 % of control (dose: 72.0 mg/kg/injection, schedule: Q04DX003 (sc), vehicle: saline); 59 % of control (dose: 144.0 mg/kg/injection, schedule: Q04DX003 (sc), vehicle: saline).

On to `CS(=O)(=O)Nc1ccc(C(=O)CCN2CCCCCC2)cc1`, for which the T/C is 101 % of control under setting [2] and 70 % of control under setting [3].

As to `CN(C)/N=N/c1nc[nH]c1C(N)=O`, the T/C is 93 % of control under setting [4], 48 % of control under setting [5] and 14 % of control under setting [6].

As to `CC(Cc1ccc(O)cc1)NCC(O)c1ccc(O)c(O)c1` (stereo unspecified), the T/C runs as follows: (dose: 75.0 mg/kg/injection, schedule: Q04DX003 (sc), vehicle: saline with Tween-80) 91 % of control; under setting [2], 96 % of control; under setting [7], 67 % of control; under setting [8], 82 % of control; under setting [9], 45 % of control.

`CCN(CC)CCNc1ccc(C)c2sc3ccc(O)cc3c(=O)c12`: the T/C was 67 % of control under setting [7] and 57 % of control under setting [8].

Consider `CCCCCC(O)C1C(=O)OC(C)C(O)/C=C/C=C/C=C/C=C\C=C(\C)C(O)CC(O)CC(O)CC(O)CC(O)CC(O)CC1O` (stereo unspecified), for which the T/C by setting is: (dose: 300.0 mg/kg/injection, schedule: Q04DX003 (sc), vehicle: distilled water + alcohol) 84 % of control; (dose: 600.0 mg/kg/injection, schedule: Q04DX003 (sc), vehicle: distilled water + alcohol) 107 % of control; (dose: 1200.0 mg/kg/injection, schedule: Q04DX003 (sc), vehicle: distilled water + alcohol) 69 % of control.

As for `Cc1nc(N)nc(N)c1-c1ccc(Cl)c(Cl)c1`, the T/C (dose: 0.47 mg/kg/injection, schedule: Q04DX003 (sc), vehicle: saline) is 100 % of control; the T/C (dose: 0.94 mg/kg/injection, schedule: Q04DX003 (sc), vehicle: saline) is 80 % of control; the T/C (dose: 3.0 mg/kg/injection, schedule: Q04DX003 (sc), vehicle: saline) is 84 % of control; the T/C (dose: 3.75 mg/kg/injection, schedule: Q04DX003 (sc), vehicle: saline) is 102 % of control; the T/C (dose: 6.0 mg/kg/injection, schedule: Q04DX003 (sc), vehicle: saline) was 107 % of control; the T/C (dose: 12.0 mg/kg/injection, schedule: Q04DX003 (sc), vehicle: saline) is 87 % of control.

`Cc1c(CNc2ccc(C(=O)NC(CC(=O)O)C(=O)O)cc2)ccc2nc(N)nc(N)c12` (stereo unspecified): the T/C (dose: 6.0 mg/kg/injection, schedule: Q04DX003 (sc), vehicle: saline with Tween-80) was 29 % of control; the T/C (dose: 48.0 mg/kg/injection, schedule: Q04DX003 (sc), vehicle: saline with Tween-80) is 13 % of control and 33 % of control; the T/C (dose: 72.0 mg/kg/injection, schedule: Q04DX003 (sc), vehicle: saline with Tween-80) was 18 % of control and 28 % of control.

Regarding `O=C(O)C1CSCN1` (stereo unspecified), the T/C (dose: 50.0 mg/kg/injection, schedule: Q01DX010 (sc), vehicle: water) was 176 % of control.

In the case of `COc1cccc2c1C(=O)c1c(O)c3c(c(O)c1C2=O)C[C@@](O)(/C(C)=N/NC(=O)c1ccc(Cl)cc1)C[C@@H]3OC1CC(N)C(O)C(C)O1` (stereo partly specified), the T/C (dose: 1.0 mg/kg/injection, schedule: Q01DX010 (sc), vehicle: water) was 58 % of control; the T/C under setting [1] was 84 % of control and 109 % of control; the T/C (dose: 16.0 mg/kg/injection, schedule: Q01DX010 (sc), vehicle: water) was 49 % of control.

As for `CN(C=O)C(C(=O)Nc1cccc2c(OC(=O)C(N(C)C=O)(N(C)C=O)N(C)C=O)c(N=Nc3ccc(S(=O)(=O)Nc4nccs4)cc3)cc(N=Nc3ccc(S(=O)(=O)Nc4nccs4)cc3)c12)(N(C)C=O)N(C)C=O` (tested in a mixture with another compound), the T/C was 108 % of control under setting [3] and 90 % of control under setting [9].

As to `CC(=O)OCN(C)C=O`, the T/C (dose: 300.0 mg/kg/injection, schedule: Q01DX010 (sc), vehicle: water) is 100 % of control; the T/C (dose: 600.0 mg/kg/injection, schedule: Q01DX010 (sc), vehicle: water) is 54 % of control; the T/C (dose: 1200.0 mg/kg/injection, schedule: Q01DX010 (sc), vehicle: water) was 18 % of control; the T/C (dose: 2400.0 mg/kg/injection, schedule: Q01DX010 (sc), vehicle: water) is -8 % of control.

As to `NC(=S)N/N=C/c1ccc(OC(=O)COc2ccccc2)cn1`, the T/C under setting [3] was 101 % of control, the T/C under setting [7] was 103 % of control and the T/C under setting [8] is 76 % of control.

On to `O=C1C(O)=C(c2ccccc2)C(=O)C(O)=C1c1ccccc1`, for which the T/C is, setting by setting: (dose: 75.0 mg/kg/injection, schedule: Q04DX003 (sc), vehicle: saline) 118 % of control; (dose: 150.0 mg/kg/injection, schedule: Q04DX003 (sc), vehicle: saline) 74 % of control; (dose: 300.0 mg/kg/injection, schedule: Q04DX003 (sc), vehicle: saline) 61 % of control.

Turning to `CCOC(=O)c1ccc(NN=NCCF)cc1`, the T/C runs as follows: (dose: 150.0 mg/kg/injection, schedule: Q04DX003 (ip), vehicle: distilled water + Tween-80 + alcohol) 107 % of control; (dose: 300.0 mg/kg/injection, schedule: Q04DX003 (ip), vehicle: distilled water + Tween-80 + alcohol) 112 % of control; (dose: 600.0 mg/kg/injection, schedule: Q04DX003 (ip), vehicle: distilled water + Tween-80 + alcohol) 55 % of control.

Consider `CC1CN=C(c2ccc(NC(=O)c3ccc(C(=O)Nc4ccc(C5=NCC(C)N5)cc4)cc3)cc2)N1` (stereo unspecified), for which the T/C runs as follows: under setting [4], 96 % of control; under setting [5], 107 % of control; under setting [6], 110 % of control; (dose: 800.0 mg/kg/injection, schedule: Q01DX010 (sc), vehicle: Klucel (hydroxypropylcellulose) (HPC)) 77 % of control.

Take `CN(C)c1nc(N(C)C)nc(N(C)C)n1`: the T/C is, setting by setting: (dose: 25.0 mg/kg/injection, schedule: Q01DX010 (sc), vehicle: Klucel (hydroxypropylcellulose) (HPC)) 5 % of control; (dose: 50.0 mg/kg/injection, schedule: Q01DX010 (sc), vehicle: Klucel (hydroxypropylcellulose) (HPC)) 21 % of control; under setting [4], -82 % of control; under setting [7], -87 % of control and -100 % of control.
